Laboratory results: patent publication US20110301142A1, “ANTAGONISTS OF LYSOPHOSPHATIDIC ACID RECEPTORS” (priority 2008, published 2011)

Assays:
[1] = molecular target: T1, human LPA1 (Homo sapiens, UniProt Q92633); test: LPA1 calcium flux assay (HLPA1 Ca Flux); assay type: cell-based; details: Human LPA1 expressing CHO cells, stimulated with 10 nM LPA
T1 construct: the full-length cDNA for human LPA1 was obtained by PCR of the reverse transcription reaction; expressed in transfected cells
Protocol: A 1.1 kb cDNA encoding the human LPA1 receptor was cloned from human lung. Human lung RNA (Clontech Laboratories, Inc. USA) was reverse transcribed using the RETROscript kit (Ambion, Inc.) and the full-length cDNA for human LPA1 was obtained by PCR of the reverse transcription reaction. The nucleotide sequence of the cloned human LPA1 was determined by sequencing and confirmed to be identical to the published human LPA1 sequence (An et al. Biochem. Biophys. Res. Commun. 231:619 (1997). The cDNA was cloned into the pcDNAS/FRT expression plasmid and transfected in CHO cells using lipofectamine 2000 (Invitrogen Corp., USA). Clones stably expressing human LPA1 were selected using hygromycin and identified as cells that show Ca-influx in response to LPA.
(§1) Human LPA1 or LPA3 expressing CHO cells are seeded at 20,000-45,000 cells per well in a 96-well poly-D-lysine coated plate one or two days before the assay. Prior to the assay, the cells are washed once with PBS and then cultured in serum-free media overnight. On the day of the assay, a calcium indicator dye (Calcium 4, Molecular Devices) in assay buffer (HBSS with Ca^2+ and Mg^2+ and containing 20 mM Hepes and 0.3% fatty-acid free human serum albumin) is added to each well and incubation continued for 1 hour at 37° C. 10 μl of test compounds in 2.5% DMSO are added to the cells and incubation continued at room temperature for 30 minutes. Cells are the stimulated by the addition of 10 nM LPA and intracellular Ca^2+ measured using the Flexstation 3 (Molecular Devices). IC50s are determined using Graphpad prism analysis of drug titration curves.

[2] = molecular target: T2, human LPA3 (Homo sapiens, UniProt Q9UBY5); test: LPA3 calcium flux assay; assay type: cell-based; details: Human LPA3 expressing CHO cells, stimulated with 10 nM LPA; read-out: HLPA3 Ca Flux IC50
T2 construct: The full-length cDNA fragment for human LPA3 was obtained by PCR from the vector; expressed in transfected cells; cDNA from the Missouri S&T cDNA Resource Center
T2 sequence (Q9UBY5 1-353): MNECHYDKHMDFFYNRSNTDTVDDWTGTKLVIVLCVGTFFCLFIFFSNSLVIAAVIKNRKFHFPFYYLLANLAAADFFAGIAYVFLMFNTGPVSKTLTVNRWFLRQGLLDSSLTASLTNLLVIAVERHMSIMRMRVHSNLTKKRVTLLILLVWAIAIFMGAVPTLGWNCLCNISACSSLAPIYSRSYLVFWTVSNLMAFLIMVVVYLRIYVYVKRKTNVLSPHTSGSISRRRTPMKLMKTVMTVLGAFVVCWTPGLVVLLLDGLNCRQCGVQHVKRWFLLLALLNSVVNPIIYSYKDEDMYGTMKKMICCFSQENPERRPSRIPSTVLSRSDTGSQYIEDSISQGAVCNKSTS
Protocol: A vector containing the human LPA3 receptor cDNA was obtained from the Missouri S&T cDNA Resource Center (www.cdna.org). The full-length cDNA fragment for human LPA3 was obtained by PCR from the vector. The nucleotide sequence of the cloned human LPA3 was determined by sequencing and confirmed to be identical to the published human LPA3 sequence (NCBI accession number NM 012152). The cDNA was cloned into the pcDNA5/FRT expression plasmid and transfected in CHO cells using lipofectamine 2000 (Invitrogen Corp., USA). Clones stably expressing human LPA3 were selected using hygromycin and identified as cells that show Ca-influx in response to LPA.
as §1

T1 sequence (Q92633 whole entry): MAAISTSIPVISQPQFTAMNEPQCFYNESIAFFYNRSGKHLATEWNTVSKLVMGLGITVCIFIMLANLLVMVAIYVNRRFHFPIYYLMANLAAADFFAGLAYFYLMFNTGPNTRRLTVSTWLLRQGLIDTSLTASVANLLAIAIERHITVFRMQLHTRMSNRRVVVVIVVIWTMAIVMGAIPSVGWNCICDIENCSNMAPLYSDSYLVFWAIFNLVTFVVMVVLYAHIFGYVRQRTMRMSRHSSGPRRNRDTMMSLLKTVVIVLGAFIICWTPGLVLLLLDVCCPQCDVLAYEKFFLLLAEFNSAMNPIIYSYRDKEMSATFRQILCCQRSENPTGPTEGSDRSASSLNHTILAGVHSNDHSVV

`Cc1noc(-c2ccc(Cc3cccc(C(=O)O)c3)cc2)c1NC(=O)OC(C)c1ccccc1Cl` (stereo not drawn) [Compound 1-5, 3-(4-{4-[1-(2-Chloro-phenyl)-ethoxycarbonylamino]-3-methyl-isoxazol-5-yl}-benzyl)-benzoic acid] was tested, and the IC50 [1] was less than 300 nM and the IC50 [2] was 1000 to 50000 nM.

`COc1ccc(CC(=O)O)cc1Cc1ccc(-c2onc(C)c2NC(=O)OC(C)c2ccccc2Cl)cc1` (stereo not drawn) [Compound 1-7, [3-(4-{4-[1-(2-Chloro-phenyl)-ethoxycarbonylamino]-3-methyl-isoxazol-5-yl}-benzyl)-4-methoxy-phenyl]-acetic acid] gave an IC50 [1] of 300 to 1000 nM and an IC50 [2] of 1000 to 50000 nM.

Molecule `Cc1noc(-c2ccc(Cn3cc(C(=O)O)cn3)cc2)c1NC(=O)OC(C)c1ccccc1Cl` (stereo not drawn) [Compound 1-9, 1-(4-{4-[1-(2-Chloro-phenyl)-ethoxycarbonylamino]-3-methyl-isoxazol-5-yl}-benzyl)-1H-pyrazole-4-carboxylic acid] has an IC50 [1] of less than 300 nM and an IC50 [2] of 1000 to 50000 nM.

For `Cc1noc(-c2ccc(COc3cccc(C(=O)O)c3)cc2)c1NC(=O)OC(C)c1ccccc1Cl` (stereo not drawn) [Compound 1-12, 3-(4-{4-[1-(2-Chloro-phenyl)-ethoxycarbonylamino]-3-methyl-isoxazol-5-yl}-benzyloxy)-benzoic acid], the IC50 [1] was less than 300 nM and the IC50 [2] was 1000 to 50000 nM.

For `Cc1noc(-c2ccc(Cc3ccc(C(=O)O)s3)cc2)c1NC(=O)OC(C)c1ccccc1Cl` (stereo not drawn) [Compound 1-15, 5-(4-{4-[1-(2-Chloro-phenyl)-ethoxycarbonylamino]-3-methyl-isoxazol-5-yl}-benzyl)-thiophene-2-carboxylic acid], the IC50 [1] was less than 300 nM and the IC50 [2] was 1000 to 50000 nM.

Molecule `Cc1noc(-c2ccc(CSc3ccc(CC(=O)O)cc3)cc2)c1NC(=O)OC(C)c1ccccc1Cl` (stereo not drawn) [Compound 1-17, [4-(4-{4-[1-(2-Chloro-phenyl)-ethoxycarbonylamino]-3-methyl-isoxazol-5-yl}-benzylsulfanyl)-phenyl]-acetic acid] has an IC50 [1] of less than 300 nM and an IC50 [2] of 1000 to 50000 nM.

`Cc1noc(-c2ccc(CSc3ccccc3CC(=O)O)cc2)c1NC(=O)OC(C)c1ccccc1Cl` (stereo not drawn) [Compound 1-19, [2-(4-{4-[1-(2-Chloro-phenyl)-ethoxycarbonylamino]-3-methyl-isoxazol-5-yl}-benzylsulfanyl)-phenyl]acetic acid] gave an IC50 [1] of less than 300 nM and an IC50 [2] of 1000 to 50000 nM.

In the case of `Cc1noc(-c2ccc(Cc3ccc(CC(=O)O)cc3)cc2)c1NC(=O)OC(C)c1ccccc1Cl` (stereo not drawn) [Compound 1-20, [4-(4-{4-[1-(2-Chloro-phenyl)-ethoxycarbonylamino]-3-methyl-isoxazol-5-yl}-benzyl)-phenyl]-acetic acid], the IC50 [1] is reported as less than 300 nM and the IC50 [2] is reported as 1000 to 50000 nM.

`Cc1noc(-c2ccc(Cc3cccc(CC(=O)O)c3)cc2)c1NC(=O)OC(C)c1ccccc1Cl` (stereo not drawn) [Compound 1-21, [3-(4-{4-[1-(2-Chloro-phenyl)-ethoxycarbonylamino]-3-methyl-isoxazol-5-yl}-benzyl)-phenyl]acetic acid] gave an IC50 [1] of less than 300 nM and an IC50 [2] of 1000 to 50000 nM.

`Cc1noc(-c2ccc(-c3ccc(CC(=O)O)cc3)cc2)c1NC(=O)OC(C)c1ccccc1C(F)(F)F` (stereo not drawn) [Compound 1-23, (4′-{3-Methyl-4-[1-(2-trifluoromethyl-phenyl)-ethoxycarbonylamino]-isoxazol-5-yl}-biphenyl-4-yl)-acetic acid] showed an IC50 [1] of less than 300 nM and an IC50 [2] of 1000 to 50000 nM.

For `Cc1noc(-c2ccc(-c3ccc(CC(=O)O)cc3)cc2)c1NC(=O)OC(C)c1cccc(C(F)(F)F)c1` (stereo not drawn) [Compound 1-24, (4′-{3-Methyl-4-[1-(3-trifluoromethyl-phenyl)-ethoxycarbonylamino]-isoxazol-5-yl}-biphenyl-4-yl)-acetic acid], the IC50 [1] was 300 to 1000 nM and the IC50 [2] was 1000 to 50000 nM.

For `Cc1noc(-c2ccc(-c3ccc(CC(=O)O)cc3)cc2)c1NC(=O)OC(C)c1ccc(Cl)cc1Cl` (stereo not drawn) [Compound 1-25, (4′-{4-[1-(2,4-Dichloro-phenyl)-ethoxycarbonylamino]-3-methyl-isoxazol-5-yl}-biphenyl-4-yl)-acetic acid], the IC50 [1] was less than 300 nM and the IC50 [2] was 1000 to 50000 nM.

For `Cc1noc(-c2ccc(-c3ccc(CC(=O)O)cc3)cc2)c1NC(=O)OC(C)c1ccccc1F` (stereo not drawn) [Compound 1-26, (4′-{4-[1-(2-Fluoro-phenyl)-ethoxycarbonylamino]-3-methyl-isoxazol-5-yl}-biphenyl-4-yl)-acetic acid], the IC50 [1] was less than 300 nM and the IC50 [2] was 1000 to 50000 nM.

Molecule `Cc1noc(-c2ccc(-c3ccc(CC(=O)O)cc3)cc2)c1NC(=O)OC(C)c1cccc(Br)c1` (stereo not drawn) [Compound 1-27, (4′-{4-[1-(3-Bromo-phenyl)-ethoxycarbonylamino]-3-methyl-isoxazol-5-yl}-biphenyl-4-yl)-acetic acid] has an IC50 [1] of less than 300 nM and an IC50 [2] of 1000 to 50000 nM.

With `COc1ccccc1C(C)OC(=O)Nc1c(C)noc1-c1ccc(-c2ccc(CC(=O)O)cc2)cc1` (stereo not drawn) [Compound 1-28, (4′-{4-[1-(2-Methoxy-phenyl)-ethoxycarbonylamino]-3-methyl-isoxazol-5-yl}-biphenyl-4-yl)-acetic acid] the IC50 [1] was less than 300 nM and the IC50 [2] was greater than 50000 nM.

`COc1ccc(CC(=O)O)cc1-c1cccc(-c2onc(C)c2NC(=O)OC(C)c2ccccc2Cl)c1` (stereo not drawn) [Compound 1-30, (3′-{4-[1-(2-Chloro-phenyl)-ethoxycarbonylamino]-3-methyl-isoxazol-5-yl}-6-methoxy-biphenyl-3-yl)-acetic acid] was tested, and the IC50 [1] was 300 to 1000 nM and the IC50 [2] was 1000 to 50000 nM.

For `Cc1noc(-c2cccc(-c3cccc(C(=O)O)c3)c2)c1NC(=O)OC(C)c1ccccc1Cl` (stereo not drawn) [Compound 1-31, 3′-{4-[1-(2-Chloro-phenyl)-ethoxycarbonylamino]-3-methyl-isoxazol-5-yl}-biphenyl-3-carboxylic acid], the IC50 [1] was 1000 to 50000 nM and the IC50 [2] was 1000 to 50000 nM.

`Cc1noc(-c2cccc(C3=CCC(C(=O)O)CC3)c2)c1NC(=O)OC(C)c1ccccc1Cl` (stereo not drawn) [Compound 1-45, 4-(3-{4-[1-(2-Chloro-phenyl)-ethoxycarbonylamino]-3-methyl-isoxazol-5-yl}-phenyl)-cyclohex-3-enecarboxylic acid] gave an IC50 [1] of less than 300 nM and an IC50 [2] greater than 50000 nM.

For `Cc1noc(-c2ccc(-c3ccc(CC(=O)O)cc3)nc2)c1NC(=O)OC(C)c1ccccc1F` (stereo not drawn) [Compound 1-48], the IC50 [1] was less than 300 nM and the IC50 [2] was greater than 50000 nM.

In the case of `COc1ccc(CC(=O)O)cc1-c1ccc(-c2onc(C)c2NC(=O)OC(C)c2ccccc2Cl)cc1` (stereo not drawn) [Compound 1-49, (4′-{4-[1-(2-Chloro-phenyl)-ethoxycarbonylamino]-3-methyl-isoxazol-5-yl}-6-methoxy-biphenyl-3-yl)-acetic acid], the IC50 [1] is reported as 300 to 1000 nM and the IC50 [2] is reported as 1000 to 50000 nM.

For `Cc1noc(-c2ccc(-c3cc(C(=O)O)ccn3)cc2)c1NC(=O)OC(C)c1ccccc1Cl` (stereo not drawn) [Compound 1-50, 2-(4-{4-[1-(2-Chloro-phenyl)-ethoxycarbonylamino]-3-methyl-isoxazol-5-yl}-phenyl)-isonicotinic acid], the IC50 [1] was less than 300 nM and the IC50 [2] was 1000 to 50000 nM.

`Cc1noc(-c2ccc(-c3ccc(C(=O)O)cc3)cc2)c1NC(=O)OC(C)c1ccccc1Cl` (stereo not drawn) [Compound 1-51, 4′-{4-[1-(2-Chloro-phenyl)-ethoxycarbonylamino]-3-methyl-isoxazol-5-yl}-biphenyl-4-carboxylic acid] showed an IC50 [1] of less than 300 nM and an IC50 [2] of 1000 to 50000 nM.

Molecule `Cc1noc(-c2ccc(-c3cccc(C(=O)O)n3)cc2)c1NC(=O)OC(C)c1ccccc1Cl` (stereo not drawn) [Compound 1-53, 6-(4-{4-[1-(2-Chloro-phenyl)-ethoxycarbonylamino]-3-methyl-isoxazol-5-yl}-phenyl)-pyridine-2-carboxylic acid] has an IC50 [1] of less than 300 nM and an IC50 [2] of 1000 to 50000 nM.

For `Cc1noc(-c2ccc(-c3ccc(C(=O)O)cn3)cc2)c1NC(=O)OC(C)c1ccccc1Cl` (stereo not drawn) [Compound 1-54, 6-(4-{4-[1-(2-Chloro-phenyl)-ethoxycarbonylamino]-3-methyl-isoxazol-5-yl}-phenyl)-nicotinic acid], the IC50 [1] was less than 300 nM and the IC50 [2] was 1000 to 50000 nM.
